Reference: patent publication US11873298B2, “Compounds and uses thereof” (JANSSEN PHARMACEUTICA NV, priority 2017, dated 2024)

Columns and labels:
[1] = target: T1, SCD5 (Homo sapiens, UniProt Q86SK9); assay: Growth inhibition of humanized yeast strain expressing SCD5 as sole desaturase; assay type: cell-based
T1 construct: host or cells: S. cerevisiae ole1Δ strain (W303 pdr1Δ pdr3Δ background), plasmid pRS316 with TDH3 promoter and CYC1 terminator
T1 sequence (Q86SK9 1-330): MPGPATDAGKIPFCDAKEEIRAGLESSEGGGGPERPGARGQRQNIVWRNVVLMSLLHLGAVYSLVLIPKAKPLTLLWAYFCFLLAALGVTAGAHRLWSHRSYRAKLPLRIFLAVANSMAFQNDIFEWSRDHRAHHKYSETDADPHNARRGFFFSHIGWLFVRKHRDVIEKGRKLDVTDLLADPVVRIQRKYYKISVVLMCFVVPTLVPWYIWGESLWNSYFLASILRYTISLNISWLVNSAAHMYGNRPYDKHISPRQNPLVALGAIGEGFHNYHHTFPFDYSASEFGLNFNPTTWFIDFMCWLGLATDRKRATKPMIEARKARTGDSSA
Summary of the method: (§1)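 ole1Δ yeast (W303 pdr1Δ pdr3Δ background) carrying plasmid-borne Ole1, SCD1 or SCD5, grown in uracil-free media; cultures pre-grown in raffinose, seeded at 2× density 0.02 in galactose media with compound. Growth read as OD600 after 24 h at 30° C. for Ole1, 40 h for SCD1/SCD5.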

[2] = target: T2, SCD1 (Homo sapiens, UniProt O00767); assay: Growth inhibition of humanized yeast strain expressing SCD1 as sole desaturase; assay type: cell-based
T2 construct: host or cells: S. cerevisiae ole1Δ strain (W303 pdr1Δ pdr3Δ background), plasmid pRS316 with TDH3 promoter and CYC1 terminator
T2 sequence (O00767 1-359): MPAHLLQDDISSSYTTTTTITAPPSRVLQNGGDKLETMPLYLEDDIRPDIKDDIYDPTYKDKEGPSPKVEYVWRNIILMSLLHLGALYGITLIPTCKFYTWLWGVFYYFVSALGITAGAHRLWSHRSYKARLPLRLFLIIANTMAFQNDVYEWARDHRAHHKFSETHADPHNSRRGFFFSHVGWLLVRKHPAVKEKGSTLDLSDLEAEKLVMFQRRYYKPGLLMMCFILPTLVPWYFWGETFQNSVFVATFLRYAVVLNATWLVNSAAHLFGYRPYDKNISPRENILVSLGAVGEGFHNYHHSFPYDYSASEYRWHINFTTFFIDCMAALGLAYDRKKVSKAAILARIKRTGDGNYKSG
Summary of the method: as §1

[3] = growth inhibition of humanized yeast strain expressing human SCD5
[4] = growth inhibition of humanized yeast strain expressing human SCD1
[5] = humanized yeast strain expressing SCD5
[6] = humanized yeast strain expressing SCD1

Row | SMILES | IC50 ([1]; humanized yeast strain, 40 h) [µM] | IC50 ([2]; humanized yeast strain, 40 h) [µM] | other results
1 | CCC(=O)N1CCC(c2noc(-c3ccc4cnn([C@@H]5CCOC5)c4c3)n2)CC1 [Compound 1050] | 0.02 | > 45 | –
2 | CC(C)C(=O)N1CCC(c2nc(-c3ccnc(F)c3)no2)CC1 [Compound 1124] | > 45 | > 45 | –
3 | CC(C)(C)OC(=O)N1CCC(c2noc(-c3ccc(=O)n(C4COC4)c3)n2)CC1 [Compound 1113] | 0.494 | > 45 | –
4 | CC(C)C(=O)N1CCC(c2noc(-c3cnc4cnn(C5COC5)c4c3)n2)CC1 [Compound 1138] | 0.761 | > 45 | –
5 | CC(C)(C)OC(=O)N1CC=C(c2ccc(-c3ccc4cnn(C5COC5)c4c3)cn2)CC1 [Compound 955] | > 45 | > 45 | –
6 | O=C(C1CC1)N1CCC(c2noc(-c3ccnc(NC4COC4)c3)n2)CC1 [Compound 1115] | 10.6 | > 45 | –
7 | CCOCC1CCN(c2nc(-c3ccc4cnn(C(C)C)c4c3)no2)CC1 [Compound 614] | – | – | IC50 [1, 3]: 13.9 µM; IC50 [2, 4]: > 45 µM
8 | COC(=O)N1CCC(c2noc(-c3ccnc(OC4COC4)c3)n2)CC1 [Compound 1064] | 3.44 | > 45 | –
9 | CC1(OC(=O)N2CCC(c3noc(-c4ccnc([C@H]5CCOC5)c4)n3)CC2)CC1 [Compound 1136] | 0.01 | > 45 | –
10 | CC(C)n1ncc2ccc(-c3nc(C4CCN(C(=O)c5ncccn5)CC4)no3)cc21 [Compound 716] | – | – | IC50 [1, 3]: > 45 µM; IC50 [2, 4]: > 45 µM
11 | CCC(=O)N1CCC(c2noc(-c3cccc(N4CCOCC4)c3F)n2)CC1 [Compound 1159] | > 45 | > 45 | –
12 | CC(C)(C)OC(=O)N1CCC(c2noc(-c3ccc4cnn(C5CNC5)c4c3)n2)CC1 [Compound 918] | 0.8 | > 45 | –
13 | COC(=O)N1CC2(C1)CN(c1noc(-c3ccc4cnn(C5COC5)c4c3)n1)C2 [Compound 1063] | 3.44 | > 45 | –
14 | CC(C)(C)OC(=O)N1CCC(c2noc(-c3ccc4cnn([C@H]5C[C@@H](O)C5)c4c3)n2)CC1 [Compound 933] | 0.2 | > 45 | –
15 | CNC(=O)O[C@H]1CC[C@@H](c2nc(-c3ccc4cnn(C(C)C)c4c3)no2)CC1 [Compound 647] | – | – | IC50 [1, 3]: 9.37 µM; IC50 [2, 4]: > 45 µM
16 | O=C(c1ccccc1)N1CCC(c2noc(-c3ccc4cnn(C5COC5)c4c3)n2)CC1 [Compound 685] | – | – | IC50 [1, 3]: 0.184 µM; IC50 [2, 4]: > 45 µM
17 | COC(=O)N1CCCC(c2noc(-c3ccc4cnn(C5COC5)c4c3)n2)CC1 (stereo not shown) [Compound 873] | 41.3 | > 45 | –
18 | CC(C)(C)OC(=O)N1CCC(c2nc(-c3ccn4cnc(I)c4c3)no2)CC1 [Compound 858] | 0.262 | > 45 | –
19 | CC(C)C(=O)N1CCC(c2noc(-c3ccnc(N(C)C4COC4)c3)n2)CC1 [Compound 1155] | > 45 | > 45 | –

Row | SMILES | IC50 ([1]; humanized yeast strain, 40 h) [µM] | IC50 ([2]; humanized yeast strain, 40 h) [µM] | other results
20 | O=C(N1CCN(c2noc(-c3ccnc(Cl)c3)n2)CC1)C1(F)CC1 [Compound 1120] | 32.8 | > 45 | –
21 | COC(=O)N1CCC(c2nc(-c3ccnc(NC(C)C)c3)no2)CC1 [Compound 815] | > 45 | > 45 | –
22 | COC(=O)N1CC[C@@H](c2noc(-c3ccc4cnn(C5COC5)c4c3)n2)C[C@@H]1C [Compound 1054] | 0.01 | > 45 | –
23 | CCC(=O)N1CCC(c2noc(-c3ccc(N4CCOCC4)cc3)n2)CC1 [Compound 1166] | > 45 | > 45 | –
24 | CC(C)n1ncc2ccc(-c3noc(C4CCN(C(=O)CNC(=O)c5cccc(Cl)c5)CC4(F)F)n3)cc21 (stereo not shown) [Compound 522] | – | – | IC50 [1, 5]: > 45 µM; IC50 [2, 6]: > 45 µM
25 | COC(=O)N1CCC(c2nc(-c3ccc4cnn(C5CCOC5)c4c3)no2)CC1 (stereo not shown) [Compound 776] | 0.025 | > 45 | –
26 | c1cc2cnn(C3COC3)c2cc1-c1nc(N2CCNCC2)no1 [Compound 751] | > 45 | > 45 | –
27 | CNC(=O)Cn1ncc2ccc(-c3noc(C4CCN(C(=O)OC(C)(C)C)CC4)n3)cc21 [Compound 644] | – | – | IC50 [1, 3]: > 45 µM; IC50 [2, 4]: > 45 µM
28 | COC(=O)N1CCC(c2noc(-c3ccccc3N3CCOCC3)n2)CC1 [Compound 1169] | > 45 | 15.4 | –
29 | CC(C)(C)OC(=O)N1CCC(c2noc(-c3cnc4cnn(C5COC5)c4c3)n2)CC1 [Compound 1047] | 0.01 | ≥ 45 | –
30 | CC(C)n1ncc2ccc(-c3noc(N4CCC(C5COC5)CC4)n3)cc21 [Compound 743] | – | – | IC50 [1, 3]: 14.8 µM; IC50 [2, 4]: > 45 µM
31 | COC(=O)N1CCCN(c2noc(-c3cc(F)c4cnn(C5COC5)c4c3)n2)CC1 [Compound 963] | 0.16 | > 45 | –
32 | CC(C)(C)OC(=O)N1CCC(c2nsc(-c3ccc4cnn(C5COC5)c4c3)n2)CC1 [Compound 780] | 0.027 | > 45 | –
33 | CC(C)C(=O)N1CCC(c2noc(N3CCc4c(cnn4C4COC4)C3)n2)CC1 [Compound 1194] | > 45 | > 45 | –
34 | CC(C)n1ncc2ccc(-c3noc(C4CCN(C(=O)c5ccc(Cl)cc5)CC4)n3)cc21 [Compound 363] | – | – | IC50 [1, 5]: > 45 µM; SCD5 % Max Inhibition [1, 5]: 1.99%; SCD1 % Max Inhibition [2, 6]: 64.44%
35 | CC1(CC(=O)N2CCN(c3nc(-c4ccc5cnn(C6COC6)c5c4)no3)CC2)CC1 [Compound 693] | – | – | IC50 [1, 3]: 1.67 µM; IC50 [2, 4]: > 45 µM
36 | COC(=O)N1CCN(c2noc(-c3ccc4cnn(C5COC5)c4c3)n2)CC1 [Compound 713] | – | – | IC50 [1, 3]: 0.01 µM; IC50 [2, 4]: 5.58 µM
37 | CC(C)n1ncc2ccc(-c3noc(C4CCN(C(=O)CNC(=O)c5ccc(F)cc5)CC4(F)F)n3)cc21 (stereo not shown) [Compound 520] | – | – | IC50 [1, 5]: > 45 µM; IC50 [2, 6]: > 45 µM
38 | CC(C)(C)OC(=O)N1CCC(c2nc(-c3ccnc(Cl)c3)no2)CC1 [Compound 747] | 26.8 | > 45 | –

Row | SMILES | IC50 ([1]; humanized yeast strain, 40 h) [µM] | IC50 ([2]; humanized yeast strain, 40 h) [µM] | other results
39 | CC(C)(C)OC(=O)N1CCC(c2nc(-c3ccc4cnn([C@H]5C[C@](C)(O)C5)c4c3)no2)CC1 [Compound 820] | 3.74 | > 45 | –
40 | CC(CCO)n1ncc2ccc(-c3noc(C4CCN(C(=O)OC(C)(C)C)CC4)n3)cc21 (stereo not shown) [Compound 641] | – | – | IC50 [1, 3]: 6.72 µM; IC50 [2, 4]: > 45 µM
41 | O=C(N1CCC(c2noc(-c3ccnc(NC4COC4)c3)n2)CC1)C1(F)CC1 [Compound 1116] | 1.41 | > 45 | –
42 | C=C(F)/C=C/n1ncc2ccc(-c3noc(C4CCN(C(=O)OC(C)(C)C)CC4)n3)cc21 [Compound 738] | – | – | IC50 [1, 3]: > 45 µM; IC50 [2, 4]: > 45 µM
43 | CC(C)C(=O)N1CCC(c2noc(-c3ccnc(-c4ccn(C)n4)c3)n2)CC1 [Compound 1184] | > 45 | > 45 | –
44 | CC1(OC(=O)N2CCC(c3noc(-c4ccc5cnn(C6CS(=O)(=O)C6)c5c4)n3)CC2)CC1 [Compound 1060] | 0.184 | > 45 | –
45 | C[C@H]1C[C@@H](c2noc(-c3ccc4cnn(C5COC5)c4c3)n2)CCN1C(=O)OC(C)(C)C [Compound 1025] | 0.01 | > 45 | –
46 | CC(C)n1ncc2ccc(-c3noc(N4CCN5C(=O)N(C)CC5C4)n3)cc21 (stereo not shown) [Compound 1108] | > 45 | > 45 | –
47 | O=C(C1CCC1)N1CCN(c2noc(-c3ccnc(NC4COC4)c3)n2)CC1 [Compound 1001] | 15.6 | > 45 | –
48 | O=C(C1CC1)N1CCC(c2noc(-c3ccc4cnn(C5COC5)c4c3)n2)CC1 [Compound 887] | 0.01 | > 45 | –
49 | CC(C)(C)OC(=O)N1CC2(CC(c3noc(-c4ccc5cnn(C6COC6)c5c4)n3)C2)C1 [Compound 1020] | 0.17 | 14.6 | –
50 | O=C(CC1CC1)N1CCC(c2noc(-c3ccc4cnn([C@@H]5CCOC5)c4c3)n2)CC1 [Compound 1104] | 0.01 | > 45 | –
51 | O=C(CC1CC1)N1CCN(c2noc(-c3ccc4cnn(C5COC5)c4c3)n2)CC1 [Compound 839] | 0.035 | > 45 | –
52 | O=C(c1ncccc1F)N1CCN(c2noc(-c3ccc4cnn(C5COC5)c4c3)n2)CC1 [Compound 972] | 4.44 | > 45 | –
53 | COC(=O)N1CCC(c2noc(-c3cc(C)c4cnn(C5COC5)c4c3)n2)CC1 [Compound 1070] | 0.081 | > 45 | –
54 | CC(C)C(=O)N1CCC(c2noc(-c3ccc(F)c(N4CCOCC4)c3)n2)CC1 [Compound 1162] | 0.0206 | 17.2 | –
55 | O=C(N1CCC(c2noc(-c3ccc4cnn(C5COC5)c4c3)n2)CC1)C1(F)CC1 [Compound 952] | 9.22 | 15.6 | –
56 | CC(C)(C)OC(=O)N1CCC(c2nc(-c3cccc(C4CCCOC4)c3)no2)CC1 (stereo not shown) [Compound 824] | 0.932 | > 45 | –
57 | O=C(C1CCC1)N1CCC(c2noc(-c3ccc4cnn(C5COC5)c4c3)n2)CC1 [Compound 880] | 0.01 | > 45 | –
